Key:
[1] = tested on: Agarabi CHO (ATCC® CRL-3440™); settings: 120 μM added every 48 hrs, 7 day batch culture, CD FortiCHO + 8 mM L-glutamine
Procedure: For this experiment, a transgenic CHO cell line, Agarabi CHO (ATCC® CRL-3440™), was grown in CD FortiCHO medium supplemented with 8 mM L-glutamine at 37° C., 8% CO2, at a shaking speed of 130 RPM. Batch culture of 6 flasks was maintained for 7 days where 3 flasks represent technical replicates for the control set and 3 flasks represent technical replicates for the treatment set. The flasks were seeded with 3E5 viable cells/mL on day 0 and to induce oxidative stress, hydrogen peroxide was added every 48 hrs to the treatment set with a final concentration of 120 μM. Cell count, cell viability, and heterologous protein production were measured every 2 days and cell pellets were collected for both control and treatment set on day 7.

[2] = tested on: Agarabi CHO (ATCC® CRL-3440™); settings: FDR corrected p-value <0.05 and methylation change greater than 25% between groups; cell pellets day 7
Procedure: Genomic DNA was purified from the collected cell pellets using DNeasy Blood & Tissue Kit (Qiagen) and was quantified using PicroGreen or NanoDrop™ 2000. The genomic DNA (500 ng) from the control and treatment set were used to prepare libraries for Whole Genome Bisulfite Sequencing (WGBS). The sequencing of the libraries was performed by a third party on a NovaSeq platform which generated 125 GB of data per sample.
Raw sequencing data were conducted quality control (fastqc) 1, sequencing adaptors trimming (TrimGalore) 2, and alignment with Bismark3. CMV promoter combined with CHOK1-GS (Cricetulus griseus) genome was used as a reference genome.
Bismark was also used for removing duplicated reads and extracting methylation counts from alignment output.
Since regulated methylation targets are most commonly clustered into short regions, DMRfinder4 was used to perform a modified single-linkage clustering of methylation sites.
Differential methylation analysis was performed using MethylKit5 between the control and treatment groups. Logistic regression was used to determine the differential methylation across all regions, and the sliding linear model (SLIM) 6 method to do FDR correction.

[3] = tested on: Agarabi CHO (ATCCR CRL-3440™); test: Adaptation of CHO cells with media supplement, batch culture (cell count, viability, protein production); assay type: cell-based, Cricetulus griseus; settings: 1 mg/L, adapted for 2 weeks, 7 day batch culture, CD FortiCHO + 8 mM L-glutamine
Procedure: For this experiment, a transgenic CHO cell line, Agarabi CHO (ATCCR CRL-3440™), was adapted for 2 weeks in CD FortiCHO medium supplemented with 8 mM L-glutamine & 1 mg/L human insulin-like growth factor 1 (IGF-1) at 37° C., 8% CO2, at a shaking speed of 130 RPM. Batch culture of 6 flasks was maintained for 7 days where 3 flasks represent technical replicates for the control set (without IGF-1 adaptation) and 3 flasks represent technical replicates for the IGF-1 adapted set. The flasks were seeded with 3E5 viable cells/mL on day 0 and 1 mg/L Insulin Growth Factor was added to the adapted set. Cell count, cell viability, and protein production were measured every 2 days and cell pellets were collected for both control and treatment set on day 7.

[4] = tested on: Agarabi CHO (ATCCR CRL-3440™); test: WGBS differential methylation analysis, IGF-1 adapted vs control; assay type: cell-based, Cricetulus griseus; settings: FDR corrected p-value <0.05 and methylation change greater than 25% between groups; cell pellets day 7
Procedure: With a maximum distance between CpG sites of 100 bp, 2048904 genomic regions were found for IGF-1 adapted samples.
Regions with FDR corrected p-value <0.05 and methylation change greater than 25% between groups were determined as differentially methylated regions (DMRs), which was 289 for IGF-1 adapted samples listed in Table 2.

Compound: OO [hydrogen peroxide]
- cell viability compared to control set [1]: reduced
- growth rate compared to control set [1]: reduced
- heterologous protein productivity compared to control set [1]: slight increase
- number of differentially methylated regions (DMRs) [2]: 122

Compound: IGF-1: human insulin-like growth factor 1, media supplement for CHO cells
- growth rate compared to control set [3]: no significant effect
- heterologous protein productivity compared to control set [3]: doubled
- viability compared to control set [3]: no significant effect
- number of differentially methylated regions (DMRs) [4]: 289

Reference: patent publication US20260250741A1, “DEVELOPMENT OF CELL MEDIUM AND FEED ON MAMMALIAN CELLS” (Evonik Operations GmbH, priority 2023, published 2026)
